According to the NIST ThermoML archive (doi:10.1021/je400178k):
± gives the expanded uncertainty stated by the source.

Assay: molar heat capacity at constant pressure; xn = mol fraction of the nth substance listed
Settings: 101 kPa, Liquid, Small sample (50 mg) DSC

CN1CCN(C)CC1 [1,4-dimethylpiperazine] + O
molar heat capacity at constant pressure [J/K/mol]
Settings	x1 = 0.1	x1 = 0.2007	x1 = 0.2992	x1 = 0.4011	x1 = 0.5	x1 = 0.6015	x1 = 0.6993	x1 = 0.799	x1 = 0.8983	x1 = 1
298.15 K	108.6 ± 2.5	122.7 ± 2.6	135.3 ± 2.8	148.5 ± 2.9	159.8 ± 3	171.1 ± 3.1	183.7 ± 3.3	195.4 ± 3.4	206.1 ± 3.5	216.5 ± 3.7
303.15 K	110.2 ± 2.5	124.5 ± 2.7	137.6 ± 2.8	150.9 ± 2.9	162.6 ± 3	174.8 ± 3.2	188.1 ± 3.3	199.9 ± 3.5	211.3 ± 3.6	221.7 ± 3.7
308.15 K	111.1 ± 2.5	125.9 ± 2.7	139.7 ± 2.8	152.3 ± 2.9	164.9 ± 3.1	176.4 ± 3.2	189.9 ± 3.3	202.1 ± 3.5	212.6 ± 3.6	222.1 ± 3.7
313.15 K	112 ± 2.6	127.8 ± 2.7	141.9 ± 2.8	154.4 ± 3	166.7 ± 3.1	178.5 ± 3.2	192.3 ± 3.4	204.4 ± 3.5	214.6 ± 3.6	223.4 ± 3.7
318.15 K	113 ± 2.6	129.8 ± 2.7	144.1 ± 2.9	156.5 ± 3	169 ± 3.1	180.6 ± 3.2	194.4 ± 3.4	206.7 ± 3.5	216.5 ± 3.7	224.6 ± 3.8
323.15 K	114.3 ± 2.6	132.1 ± 2.7	146.3 ± 2.9	158.2 ± 3	171 ± 3.1	182.5 ± 3.3	196.6 ± 3.4	208.8 ± 3.6	218 ± 3.7	225.3 ± 3.8
328.15 K	115.5 ± 2.6	134.5 ± 2.8	148.7 ± 2.9	160.6 ± 3	172.7 ± 3.2	184.8 ± 3.3	198.7 ± 3.4	210.8 ± 3.6	219.8 ± 3.7	225.7 ± 3.8
333.15 K	116.4 ± 2.6	136.4 ± 2.8	151.5 ± 2.9	163.3 ± 3.1	174.8 ± 3.2	186.4 ± 3.3	200.6 ± 3.5	213.1 ± 3.6	221.6 ± 3.7	227.5 ± 3.8
338.15 K	117.4 ± 2.6	137.7 ± 2.8	153.5 ± 3	165.8 ± 3.1	177.1 ± 3.2	188.5 ± 3.3	202.8 ± 3.5	215.2 ± 3.6	223.5 ± 3.7	228.5 ± 3.8
343.15 K	118.4 ± 2.6	139.3 ± 2.8	156.2 ± 3	169 ± 3.1	179.7 ± 3.2	191.4 ± 3.4	205.4 ± 3.5	217.7 ± 3.7	225.5 ± 3.8	229.6 ± 3.8
348.15 K	119.5 ± 2.6	141 ± 2.8	157.8 ± 3	171.3 ± 3.1	182.6 ± 3.3	194.4 ± 3.4	208.5 ± 3.6	220.6 ± 3.7	227.9 ± 3.8	231.7 ± 3.8
353.15 K	120.8 ± 2.6	142.4 ± 2.8	159.4 ± 3	173.6 ± 3.2	185.7 ± 3.3	198.7 ± 3.4	213.5 ± 3.6	225.5 ± 3.8	233.5 ± 3.9	235.9 ± 3.9
